Results as given in patent US10704076B2, “Multi-tiered high through-put screen for compounds effective against bacterial biofilm and compounds effective for inhibiting and eradicating bacterial biofilm” (University of Cincinnati, priority 2013, dated 2020).
“Also recorded” adds a separate entry of the source.

Tests used:
[1] = system: A. baumannii; assay: HTS total bacterial growth assay (optical density OD560); assay type: cell-based, Acinetobacter baumannii; conditions: Acinetobacter baumannii, 10 point dose-response 0.1-50 μM, NS* = no sigmoid curve observed, read-out: Total Bacteria Growth AC50
Text: (§1) Each HTS tier consisted of: (i) primary screening, (ii) confirmation screening and (iii) dose-response curve screening. Each tier of HTS included three distinct biological process assays. The first assay was an optical density measurement of bacteria growth in the presence of each compound reported as a total bacteria growth. In the second assay, resazurin solution was used as an indicator of metabolic activity to measure the live bacteria in the biofilms, reported as live biofilm. The final assay was crystal violet staining, which indicated the amount of biofilm formation and the effect of each compound on this process, reported as total biofilm formation.
(§2) Briefly, stationary phase bacteria grown in L-broth were diluted 1:200 into fresh L-broth and 50 μM of each test compound. After 20-24 hours, the optical density (OD560) of each suspension was measured using Zeiss Plate::Vision with a 560 BP filter (560 nm, 2.5% light intensity, 1 mm focus to bottom of plate, and exposure time of 100 ms). To measure bacterial viability in the biofilm, 50 μl of a 5 mg/ml resazurin solution in L-broth was added to each well after washing 3 times with 50 μl of PBS. The plates were then incubated at 37° C. for 30 or 180 min for A. baumannii and P. aeruginosa biofilms, respectively. Fluorescence was measured using Zeiss Plate::Vision at excitation and emission wavelengths of 535 and 580 nm, 100 ms exposure time, 2.5% intensity and a 2 mm focus to the bottom of the biofilms. To assess biofilm formation, plates were washed 3 times with PBS and then 50 μl of 0.01% of crystal violet was added to each well to assess bacterial biofilm formation as described in a similar borosilicate tube assay by O'Toole and Kolter. After incubation at room temperature for 30 min and removal of the crystal violet solution by washing with PBS, 95% ethanol was added to solubilize the crystal violet followed by incubation for 20 min at room temperature. Finally, the optical density of each plate was determined using measured by Zeiss Plate::Vision using the same settings used to measure total bacterial growth. These 3 steps were used in each of the three tiers for the HTS process: (i) single point primary screening at 10 μM, (ii) triplicate confirmation of hits from (i) at 10 μM and (iii) determination of AC50 values in 10 point dose-response at a concentration range of 0.1-50 μM) in hits from (ii). The AC50 represents the concentration of compound that inhibits 50% of bacterial growth, bacterial viability, or biofilm formation. Genedata Screener® Assay Analyzer Software (Ver. 9.0.0 Standard) was used to analyze data from all assay tiers. Compounds with an AC50 of less than 20 μM in one of the biological assays from the dose response screen were subject to additional investigation.

[2] = system: A. baumannii biofilm; assay: HTS total biofilm formation assay (crystal violet staining); assay type: cell-based, Acinetobacter baumannii; conditions: Acinetobacter baumannii, 10 point dose-response 0.1-50 μM
Text: as §1, §2

[3] = system: A. baumannii biofilm; assay: HTS live biofilm assay (resazurin metabolic activity); assay type: cell-based, Acinetobacter baumannii; conditions: Acinetobacter baumannii, 10 point dose-response 0.1-50 μM
Text: as §1, §2

[4] = system: A. baumannii established biofilm; assay: CLSM, effect of compound on the pre-existing biofilm; assay type: cell-based, Acinetobacter baumannii; conditions: 24 hr; for killing of established A. baumannii biofilm (CLSM, in words): 300 μM; for Effect of compound on the pre-existing biofilm: Killing: Y / —
Method: (§3) Broad spectrum agents (effective against all three bacterial species) and single agent compounds identified as HTS hits were investigated with CLSM confirmation of inhibition of biofilm formation (culture of bacteria with compounds) or killing of bacteria residing within an established biofilm (compound addition after culturing biofilm). To evaluate inhibition of P. aeruginosa biofilms, bacteria were sub-cultured into 10% L-broth and grown at 37° C. until the OD600 reached 0.25. The bacteria were further diluted 1:100 into a modified 0.5×M63 minimum media (50 mM KH2PO4, 7.5 mM (NH4)2SO4, 9 μM FeSO4, 0.5% casamino acids, 0.2% glucose, and 1 mM MgSO4). A. baumannii biofilms were also grown in 10% L-broth until the OD600 reached 0.05 but diluted 1:10 into 5% L-broth media. S. epidermidis biofilm cultures were grown. Briefly, the bacteria were grown in TSB until the OD600 reached 0.75, and a 1:100 dilution of the bacteria was sub-cultured into phosphate buffered saline (PBS). All of the biofilm bacterial cultures were grown in 96-well plate chambers (MatTek Corp., Ashland, Mass.) in the presence of 10 μM of each compound or DMSO as a control and incubated for 18 hrs at 37° C. To investigate the ability of compounds to kill bacteria within pre-existing biofilms, biofilms were grown under the same conditions, but without test compound. These biofilms were washed once with PBS and incubated an additional 24 hr at 37° C. in PBS containing 300 μM of each compound. All biofilm cultures were then washed twice with 100 μL of PBS and stained using the LIVE/DEAD® BacLight™ Bacterial Viability Kit (Invitrogen). Finally, biofilm images were obtained using a Zeiss LSM510 META Confocal Microscope (Carl Zeiss, Inc., Germany). A 488 nm laser was used in conjunction with a Plan-Apochromat 100×/1.4 Oil DIC objective. Z-stacks were 8 bit and measured 127.3 μm×127.3 μm×16.0 μm in size. The filters used were 505-530 and 620-680 IR, as the excitation and emission wavelengths for red fluorescence are 490 nm and 635 nm, respectively, and 480 nm and 500 nm for green fluorescence. Three dimensional images were generated using the “Projection” ability on LSM Image Browser software (v.1.4.0.121) or Zeiss LSM image browser software version 3.5 (Carl Zeiss, Inc., Germany), and Live/Dead calculations were conducted based upon these images using MacBiophotonics ImageJ following the guidelines in the cell counting guide by C. Labno {Rasband, 1997-2011 #25; Labno, #2} at the University of Chicago Integrated Light Microscopy Core. The thickness of the biofilm was calculated using Comstat software. A hit was defined as a >50% dead to live ratio.
(§4) The CLSM experiment was performed in one or two or all bacteria used in this study depending on its activity. For the validation of HTS hits, 10 μM of compound was added to each bacterial suspension and the resulting biofilm stained with LIVE/DEAD® BacLight™ Bacterial Viability Kit. The images were analyzed to determine the live and dead ratios of biofilm bacteria, the thickness of biofilms, and structural attributes of biofilms.

[5] = system: A. baumannii biofilm; assay: CLSM, co-culture of bacteria with compound (inhibition of biofilm formation); assay type: cell-based, Acinetobacter baumannii; conditions: for killing of residential bacteria, co-culture (CLSM, in words): 10 μM; for Co-culture of bacteria with compound: Killing: CLSM, 10 μM compound, 18 hrs, Y / —
Method: as §3, §4

[6] = system: P. aeruginosa biofilm; assay: HTS total biofilm formation assay (crystal violet staining); assay type: cell-based, Pseudomonas aeruginosa; conditions: Pseudomonas aeruginosa, 10 point dose-response 0.1-50 μM
Text: as §1, §2

[7] = system: P. aeruginosa; assay: HTS total bacterial growth assay (optical density OD560); assay type: cell-based, Pseudomonas aeruginosa; conditions: Pseudomonas aeruginosa, 10 point dose-response 0.1-50 μM, read-out: Total Bacteria Growth AC50
Text: as §1, §2

[8] = system: P. aeruginosa biofilm; assay: HTS live biofilm assay (resazurin metabolic activity); assay type: cell-based; conditions: Pseudomonas aeruginosa, 10 point dose-response 0.1-50 μM
Text: as §1, §2

[9] = system: P. aeruginosa biofilm; assay: CLSM, co-culture of bacteria with compound (inhibition of biofilm formation); assay type: cell-based, Pseudomonas aeruginosa; conditions: for killing of residential bacteria, co-culture (CLSM, in words): 10 μM; for Co-culture of bacteria with compound: Killing: Y / —
Method: as §3, §4

[10] = system: S. epidermidis established biofilm; assay: Killing of established Se biofilm by compounds Se-1 through Se-16; assay type: cell-based, Staphylococcus epidermidis; conditions: 300 μM compound, X / O
Text: This Example illustrates efficacy of compounds Se-1 through Se-16 at inhibiting S. epidermidis biofilm formation and/or killing established S. epidermidis biofilms. Detailed methods, materials and data are set forth in Shea, Chloe, U of Cincinnati Masters Thesis “Effectiveness of Novel Compounds at Inhibiting and Killing P. aeruginosa and S. epidermidis Biofilms” published on Mar. 17, 2013, the entire disclosure of which is incorporated herein by this reference. FIG. 8 illustrates effective inhibition of Se biofilm formation. For these experiments, Se was co-cultured with 10 μM of compounds Se-1 through Se-16 (see Table 5 for compound names and Table 6 for compound structures). A-H represents the top view of the Se biofilm, while the sagittal view is shown in I-P. The control Se biofilm is shown in A/I. Se biofilm formation in the presence of 10 μM of compound Se-3, Se-4, Se-13, Se-14, Se-15 or Se-16 as shown in B/J, C/K, D/L, E/M, F/N, G/O, and H/P, respectively. FIG. 9 illustrates effective killing of established Se biofilm. For this experiment, Se biofilms were treated with 300 μM of compounds Se-1 through Se-16. A-H represents the top view of the Se biofilm, while the sagittal view is shown in I-P. The control Se biofilm is shown in A/I. Effective killing was defined as >50% dead bacteria.

[11] = system: P. aeruginosa established biofilm; assay: CLSM, effect of compound on the pre-existing biofilm; assay type: cell-based, Pseudomonas aeruginosa; conditions: 300 μM, 24 hr
Method: as §3, §4

## O/N=C1/C=Cc2[nH]c(-c3ccccc3)cc2/C1=N/O [Compound 18, N-(4-nitroso-2-phenyl-1H-indol-5-yl)hydroxylamine]
[1]
  AC50: 17.7 µM
[2]
  AC50: 14.6 µM
[3]
  AC50: 4.53 µM
[4]
  killing of established A. baumannii biofilm (CLSM, in words): demonstrated killing of established biofilm culture; also recorded: effective against biofilm resident A. baumannii
[4]; CLSM, 300 μM compound
  Effect of compound on the pre-existing biofilm: Killing: Y (A hit was defined as a >50% dead to live ratio)
[5]
  killing of residential bacteria, co-culture (CLSM, in words): effective in killing the bacterium
  Co-culture of bacteria with compound: Killing: Y (A hit was defined as a >50% dead to live ratio)

## O=C(O)c1cn(-c2ccc(F)cc2F)c2nc(N3CCC(O)CC3)c(F)cc2c1=O [Compound 14, 1-(2,4-difluorophenyl)-6-fluoro-1,4-dihydro-4-oxo-7-(4-hydroxy-1-piperidinyl)-1,8-Naphthyridine-3-carboxylic acid]
[6]
  AC50: 13 µM
[7]
  AC50: 13.6 µM
[8]
  AC50: 80.1 µM
[9]
  killing of residential bacteria, co-culture (CLSM, in words): lethal to residential bacteria
[9]; CLSM, 10 μM compound, 18 hrs
  Co-culture of bacteria with compound: Killing: Y (A hit was defined as a >50% dead to live ratio)

## Oc1c(I)cc(I)cc1/C=N/c1ccc2[nH]c(-c3ccccc3)nc2c1 [Compound 31]
[1]
  AC50: > 200 µM
[2]
  AC50: 23.5 µM
[3]
  AC50: 17.4 µM
[4]
  killing of established A. baumannii biofilm (CLSM, in words): demonstrated killing of established biofilm culture; also recorded: demonstrated ability in killing; also recorded: effective against biofilm resident A. baumannii
[4]; CLSM, 300 μM compound
  Effect of compound on the pre-existing biofilm: Dispersion: did demonstrate dispersion activity
  Effect of compound on the pre-existing biofilm: Killing: Y (A hit was defined as a >50% dead to live ratio)
[5]
  killing of residential bacteria, co-culture (CLSM, in words): effective in killing the bacterium
  Co-culture of bacteria with compound: Killing: Y (A hit was defined as a >50% dead to live ratio)

## N#C/C(=N\Nc1ccc(OC(F)(F)F)cc1)C(=O)c1cccs1 [Se12, (2E]-3-keto-3-(2-thienyl]-2-[[4-(trifluoromethoxy)phenyl]hydrazono]propionitrile]
[10]
  Killing: X (Effective killing was defined as >50% dead bacteria)

## O=C(Nc1cccc(F)c1)c1ccccc1NS(=O)(=O)c1ccc(Br)cc1 [Se15, 2-[(4-bromophenyl)sulfonylamino]-N-(3-fluorophenyl)benzamide]
[10]
  Killing: X (Effective killing was defined as >50% dead bacteria)

## CN(C)c1ccc(CN2CCN(C(=O)Nc3ccc(C(F)(F)F)cc3)CC2)cc1 [Se3, 4-{[4-(dimethylamino]phenyl]methyl}-N-[4-(trifluoromethyl]phenyl]piperazine-1-carboxamide]
[10]
  Killing: X (Effective killing was defined as >50% dead bacteria)

## NC1=CC(=O)c2nonc2C1=O [Compound 2, 5-amino-2,1,3-Benzoxadiazole-4,7-dione]
[6]
  AC50: 1.43 µM
[1]
  AC50: 2.21 µM
[2]
  AC50: 3.15 µM
[3]
  AC50: 3.21 µM
[7]
  AC50: 9.09 µM
[8]
  AC50: 15.2 µM
[5]
  killing of residential bacteria, co-culture (CLSM, in words): effectively killed the residential bacteria
  Co-culture of bacteria with compound: Killing: Y (A hit was defined as a >50% dead to live ratio)
[9]
  killing of residential bacteria, co-culture (CLSM, in words): effectively killed the residential bacteria
[9]; CLSM, 10 μM compound, 18 hrs
  Co-culture of bacteria with compound: Killing: Y (A hit was defined as a >50% dead to live ratio)

## CCc1c(C)[nH]c(CC(=O)O)c1C [Se14, 2-(4-ethyl-3,5-dimethyl-1H-pyrrol-2-yl]acetic acid]
[10]
  Killing: X (Effective killing was defined as >50% dead bacteria)

## CC(C)(C)n1cc(C(=O)O)c(=O)c2cc(F)c(N3CCN(C(=S)S)CC3)nc21 [Compound 9, 1-(1,1-dimethylethyl)-1,4-dihydro-6-fluoro-4-oxo-7-(4-dithiocarboxypiperazin-1-yl)-1,8-Naphthyridinyl-3-carboxylic acid]
[6]
  AC50: 3.6 µM
[11]
  killing of established P. aeruginosa biofilm (CLSM, in words): failed to kill bacteria within a biofilm
[7]
  AC50: 27.7 µM
[8]
  AC50: 8.14 µM
[9]; CLSM, 10 μM compound, 18 hrs
  Co-culture of bacteria with compound: Inhibit biofilm formation: failed to inhibit biofilm formation

## O=C(Nc1ccc(Cl)cc1)Nc1nnc(C(F)(F)F)s1 [Se10, 1-(4-chlorophenyl)-3-[5-(trifluoromethyl)-1,3,4-thiadiazol-2-yl]urea]
[10]
  Killing: X (Effective killing was defined as >50% dead bacteria)

## CCCCCCCCCCCCOCC[N+](CCO)(CCO)Cc1ccccc1 [Se4, 2-dodecoxyethyl-bis(2-hydroxyethyl)-(phenylmethyl)ammonium]
[10]
  Killing: X (Effective killing was defined as >50% dead bacteria)
